Assay results reported in patent US7811605B2, “Method of formation of shape-retentive aggregates of gel particles and their uses” (ULURU Inc., priority 2002, dated 2010).

Experiment: Entrapment and release of bromocresol green from particle aggregates in PBS, UV-Visible absorption
Assay type: physicochemical
Details: 1 mg dye in 2 mL Tween 80 stabilized pHEMA particles, 36 mg/mL, injected into PBS; discrete particles and 50:50 mixtures of two sizes
Method: Injection of a dispersion of particles with a small molecule dissolved in the suspension medium forms an aggregate that traps some of the small molecule. In a typical experiment, 1 mg of bromocresol green dye was dissolved into 2 mL of a suspension of Tween 80 stabilized pHEMA particles (725 nm in diameter) with a hydrated polymer mass of 36 mg/mL. The dispersed particles and dye were injected into a solution of phosphate buffered saline. After 10 minutes of aggregation, the solution was shaken at 10 cycles per second to insure adequate mixing. 2 mL samples of supernatant were taken and characterized by UV-Visible absorption spectroscopy. […] In both cases, most of the small molecule is released within the first 3-5 hours, however, the burst effect is smaller in the mixed aggregate system.

- time within which most of the small molecule is released: 3 to 5 h
Compound: Cc1c(C2(c3cc(Br)c(O)c(Br)c3C)OS(=O)(=O)c3ccccc32)cc(Br)c(O)c1Br [bromocresol green]
